From patent US9416138B2, “Benzyl sulfonamide compounds useful as MoGAT-2 inhibitors” (Eli Lilly and Company, priority 2012, dated 2016) come the findings set out here.

The target of assay [1] is T1, human MoGAT-2 (Homo sapiens, UniProt Q3SYC2). The assay can be described thus: Inhibitory Activity in MOGAT-2 Cell Assay (Caco-2 cells stably transfected with human MoGAT-2, HDG substrate, LC-MS). Set-up: expressed in transfected cells. To be noted: Caco-2 cells expressing human MoGAT-2; 4 hours treatment with HDG/DOPC; read-out: C50 nM (Std Dev.; n*). The format is cell-based. As to the method:
The inhibitory activity of compounds against human MoGAT-2 in a cell environment is evaluated in this assay. Caco-2 is a human colon carcinoma cell line and is often used as a model for intestinal epithelial cells. […] The substrate is delivered to cells using as a mixture with DOPC in the form of sonicated vesicles. Seed the Caco2 cells onto 100 mm dishes to be 80% confluent after 24 hours in complete media (3/1 DMEM: F12+10% FBS+20 mM HEPES+gentamicin). Transfect the cells with hMoGAT-2 plasmid (MOGAT-2-pCDNA3.1-Hygro) using Lipofectamine 2000 (Invitrogen). After a 6 hour exposure to the transfection mixture, wash the cells three times in PBS and then add media. Incubate the cells for an additional 18 hours incubation, trypsinize the cells and serially dilute them into 100 mm dishes. Add complete media+400 μg/ml hygromycin and incubate until clones appear. Isolate and transfer the clones into 24 well dishes and grow to confluency. Prepare the RNAs from these clones using a Qiagen RNAeasy kit. Perform Taqman analysis using an ABI inventoried assay (HS00228262) on a 7900 Sequence Detection System (ABI). Analyze the lysates from these clones by Western blot analysis using a goat polyclonal antibody (Santa Cruz, SC-32392 to confirm human MoGAT-2 expression of a 38 kD protein corresponding to MoGAT-2. […] Add 20 ml of buffer (150 mM Tris-Cl pH 7.4, 250 mM sucrose, 1 mM EDTA) to the dried HDG/DOPC mixture while sonicating until the solution becomes clear. Plate the Caco2 cells into a poly-D-lysine coated 96-well plate (the “Cell Plate”) at 37° C., 5% CO2 overnight. […] Trypsinize the cells with 50 μl of trypsin solution and add 50 μl of PBS. Immediately freeze the cells on dry ice and store at -20° C. for LC-MS analysis. Extract the cells with chloroform/methanol as follows: transfer the cells to a 2 ml plate; wash the cell plate with 200 μL methanol and then transfer the methanol wash to the 2 ml plate; wash the cell plate again with 200 μL PBS and transfer the PBS wash to the 2 ml plate. Add chloroform (400 μL) with an internal standard (19.52 ng/mL) DAG (15:0,15:0 (Sigma)), D5-TAG (39.03 ng/mL) CDN (16,16,16) to the 2 mL Plate. Turn the sealed 2 mL Plate up and down (10×), then vortex and spin. Remove 400 μL of the lower layer from the 2 mL plate and add to the wells of another plate the “Final Plate”. Add CHCl3:MeOH (400 μL 2:1) to the 2 mL Plate. Again turn the sealed 2 mL Plate up and down (10×), vortex and spin. Remove 220 μL of the lower layer from the 2 mL Plate and add to the Final Plate. Dry the Final Plate and reconstitute with […] of IPA. […] Monitor the channels to collect data for the D5 C16 TAG internal standard as well as the ether TAG, and […] and […] natural TAGs. Solvent A is 80/20 H2O/Methanol with 20 μM ammonium acetate. Solvent B is 50/50 IPA/THF with 20 μM ammonium acetate. Flow rate is 0.4 mL/min Wash solvents are H2O/MeOH and DCM. Using Xcalibur software extract the areas of the peaks of interest, and export the data to Excel which uses the following formula: (area of ether TAG/area of […] natural TAG)/Area of IS. This ratio effectively accounts for variance of cell number in each well.

Assay [2] has as its target T1, human MoGAT-2. The assay is described as follows: MOGAT-2 Inhibitory Assay (SF9 cell lysate, 14C-oleoyl-CoA, Microscint E extraction). The format is biochemical. The arrangement: made in house; host or cells: insect SF9 cells (cell lysate supernatant). To be noted: human MoGAT-2 expressed in SF9 cells, cell extract; 90 minutes at room temperature. On the procedure:
The in vitro inhibitory activity of compounds against human MoGAT-2 is evaluated in this assay. MoGAT-2 transfers an oleoyl group to monooleoyl-glycerol (“MAG”) from oleoyl-CoA to form dioleoyl-glycerol (“DAG”) in the intestinal triglyceride resynthesis pathway. The assay takes advantage of Microscint E extraction, which extracts hydrophobic molecules selectively over hydrophilic ones to separate the ^14C-oleoyl-CoA from ^14C-DAG.
Genetically engineered insect SF9 cells express human MoGAT-2. Prepare the cell lysate in 20 mM of NaCl with protease inhibitor (Roche Cat#11873580001). Homogenize the SF9 cells expressing human MoGAT-2 at 15,000 rpm for 20×2 seconds (PT-3100 Polytrone). Centrifuge the homogenate at 1000 g for 10 minutes at 4° C. Collect the supernatant into a separate tube for protein quantification and activity testing. Purify the glycerol monooleate substrate (Spectrum Chemical, CAS#25496-72-4) chromatographically. Prepare the monoacylglyerol (MAG) substrate in phospholipid vescicles (dioleoyl phosphatidylcholine “DOPC”). Prepare the MAG/DOPC vesicles at 20 mM concentration of total lipids (MAG and DOPC). Prepare different molar ratios of MAG to total lipids for either compound screening (8.9%) or compound kinetic studies (2.6-40%). Mix the appropriate amount of purified MAG and DOPC (Avanti Polar Lipids #850375C) in chloroform in a glass tube. […]

Assay [3] deals with oil bolus-induced excursion of triglycerides in circulation. The assay is described as follows: Dog Oil Bolus Model. The format is in vivo, dog (male beagles). The conditions noted are these: 10 mg/kg dose, olive oil bolus, plasma net TAG AUC, statistically significant (p<0.05). From the text: Inhibiting MoGAT-2 found in the small intestine may be useful for treating hypertriglyceridemia caused by excessive fat intake Inhibition of MoGAT-2 disrupts resynthesis of triglycerides, which reduces secretion of triglycerides from the intestine. Therefore, MoGAT-2 inhibition interferes with a specific process that leads to eventual secretion of triglycerides into the intestine for eventual circulation through the body. To assess the ability of one or more of the exemplified compounds to inhibit MoGAT-2 induced TAG secretion into the intestine as measured in the blood system, the following protocol can be followed:
Twenty one male beagles are enrolled for each study, each dog selected to have a body weight between 9-13 kg. […]
The analyte is the [M+NH4]+ ion of TAG 18:1 18:1 18:1, which has a mass of 902.8 m/z; the internal standard is D5 TAG 16:0 16:0 16:0, which has a mass of 829.8 m/z. […] The percent inhibition of plasma triglyceride is calculated as follows: the (oil bolus group mean of net TAG AUC−oil bolus group mean of net TAG AUC with compound treatment/oil bolus group mean of net TAG AUC)*100. […] The ability of exemplified compounds of the present invention to inhibit MoGAT-2 activity and reduce TAG absorption in vivo can be further evaluated according to this assay.

Counter-ions that a name gives are not always drawn.

T1 sequence (Q3SYC2 whole entry): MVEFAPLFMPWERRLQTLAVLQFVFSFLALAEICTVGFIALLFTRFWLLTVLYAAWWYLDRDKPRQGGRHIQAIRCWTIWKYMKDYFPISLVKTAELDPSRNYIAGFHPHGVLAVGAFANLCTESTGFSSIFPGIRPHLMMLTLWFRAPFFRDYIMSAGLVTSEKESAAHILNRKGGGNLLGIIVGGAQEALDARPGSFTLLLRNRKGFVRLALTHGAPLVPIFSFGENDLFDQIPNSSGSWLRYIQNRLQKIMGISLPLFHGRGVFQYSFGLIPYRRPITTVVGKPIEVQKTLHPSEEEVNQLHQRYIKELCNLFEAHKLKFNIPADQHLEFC

On to `CS(=O)(=O)N[C@@H](c1ccc(CNCCN2CCc3ccccc3C2=O)cc1)C(F)(F)F` [Example 31, N-{(1S)-2,2,2-Trifluoro-1-[4-({[2-(1-oxo-3,4-dihydroisoquinolin-2(1H)-yl)ethyl]amino}methyl)phenyl]ethyl}methanesulfonamide hydrochloride], for which, in assay [1], the IC50 amounted to 266 nM.

As for `C[C@@H](NS(C)(=O)=O)c1ccc(CNC2CCN(c3ccccc3)C2)cc1` (single isomer, unassigned; isomer 2) [Example 19], in assay [1], the IC50 was 105 nM.

Take `CS(=O)(=O)N[C@@H](c1ccc(CNC[C@H]2COc3cccnc3O2)cc1)C(F)(F)F` [Example 1, N-{(1S)-1-[4-({[(3S)-2,3-Dihydro[1,4]dioxino[2,3-b]pyridin-3-ylmethyl]amino}methyl)phenyl]-2,2,2-trifluoroethyl}methanesulfonamide hydrochloride]: the IC50 in assay [1] came to 3.8 nM; in assay [2], 2.28 nM.

Regarding `C[C@@H](NS(C)(=O)=O)c1ccc(CNCC2COc3ccccc3N2)cc1` (single isomer, unassigned; isomer 2) [Example 14], in assay [1], the IC50 was found to be 479 nM.

Take `C[C@@H](NS(C)(=O)=O)c1ccc(CNCC2COC(c3ccccc3)CO2)cc1` (single isomer, unassigned; isomer 2) [Example 29]: in assay [1], the IC50 was 294 nM.

Consider `C[C@@H](NS(C)(=O)=O)c1ccc(CNC[C@H]2COc3cccnc3O2)cc1.Cl` [Example 2, N-{(1R)-1-[4-({[(3S)-2,3-Dihydro[1,4]dioxino[2,3-b]pyridin-3-ylmethyl]amino}methyl)phenyl]ethyl}methanesulfonamide hydrochloride], for which, in assay [3], the “reduction in TAG 18.1_18.1_18.1” value came out at 67% and the “reduction in total triglycerides” value was 77%.
